BindingDB's records for doi:10.1016/j.bmc.2011.12.062 (The Ohio State University College of Medicine, 2012)

Experiment: Displacement of thioflavin T from insulin amyloid fibrils by thioflavin-T fluorescent dye assay

| IC50 [nM] | Compound |
| --- | --- |
| 80 | CN(C)c1ccc(/C=C/c2sc3ccccc3[n+]2CCCCCOc2ccccc2)cc1 |
| 120 | CCCCCCC[n+]1c(/C=C/c2ccc(N(CC)CC)cc2)sc2ccccc21 |
| 90 | CCCCCCC[n+]1c(/C=C/c2ccc(N(CCCC)CCCC)cc2)sc2ccccc21 |
| 6 | CC[n+]1c(/C=C/c2ccc(N(C)C)cc2)sc2ccccc21 |
| 5.2 | CN(C)c1ccc(/C=C/c2sc3ccc(Cl)cc3[n+]2C)cc1 |
| 7.5 | Cc1ccc2sc(/C=C/c3ccc(N(C)C)cc3)[n+](C)c2c1 |
| 6 | Cc1ccc2c(c1)sc(/C=C/c1ccc(N(C)C)cc1)[n+]2C |
| 12 | CN(C)c1ccc(/C=C/c2sc3cc([N+](=O)[O-])ccc3[n+]2C)cc1 |
| 1200 | CN(C)c1ccc(/N=N/c2nc3ccccc3s2)cc1 |
| 700 | COc1ccc2nc(/N=N/c3ccc(N(C)C)cc3)sc2c1 |
| 1300 | CN(C)c1ccc(/N=N/c2nc3ccc(Cl)cc3s2)cc1 |
| 10 | COc1ccc2c(c1)sc(/N=N/c1ccc(N(C)C)cc1)[n+]2C |
| 60 | CN(C)c1ccc(/N=N/c2sc3ccccc3[n+]2C)cc1 |
| 12 | CN(C)c1ccc(/C=C/c2sc3ccccc3[n+]2Cc2ccccc2)cc1 |
| 27 | CCCC[n+]1c(/C=C/c2ccc(N(C)C)cc2)sc2ccccc21 |
| 83 | CCCCCCC[n+]1c(/C=C/c2ccc(N(C)C)cc2)sc2ccccc21 |
| 32 | CN(C)c1ccc(/C=C/c2sc3ccc(F)cc3[n+]2Cc2ccccc2)cc1 |

| IC50 [nM] | Compound |
| --- | --- |
| 50 | Cc1ccc2c(c1)sc(/C=C/c1ccc(N(C)C)cc1)[n+]2Cc1ccccc1 |
| 40 | CCCCCCC[n+]1c(/C=C/c2ccc(N(C)C)cc2)sc2cc(OC)ccc21 |
| 42 | CN(C)c1ccc(/C=C/c2sc3ccccc3[n+]2Cc2ccc(F)cc2)cc1 |
| 34 | CN(C)c1ccc(/C=C/c2sc3ccccc3[n+]2Cc2ccc(-c3ccccc3)cc2)cc1 |
| 80 | CN(C)c1ccc(/C=C/c2sc3ccccc3[n+]2Cc2ccccc2-c2ccccc2)cc1 |
| 180 | CN(C)c1ccc(/C=C/c2sc3ccccc3[n+]2Cc2cccc(Oc3ccccc3)c2)cc1 |
| 80 | CN(C)c1ccc(/C=C/c2sc3ccccc3[n+]2C/C=C/c2ccccc2)cc1 |
| 210 | CN(C)c1ccc(/C=C/c2sc3ccccc3[n+]2CCCC(c2ccccc2)c2ccccc2)cc1 |
| 52 | CN(C)c1ccc(/C=C/c2sc3ccccc3[n+]2CCCOCc2ccccc2)cc1 |
| 42 | CCCCCCC[n+]1c(/C=C/c2ccc(-n3cccc3)cc2)sc2ccccc21 |
| 41 | CN(C)c1ccc(/C=C/c2sc3c(Cc4ccccc4)c(Cc4ccccc4)ccc3[n+]2C)cc1 |
| 13 | CN(C)c1ccc(/C=C/c2sc3ccccc3[n+]2Cc2ccc3ccccc3c2)cc1 |
| 40 | CCCCCCC[n+]1c(/C=C/c2ccc(N(C)C)c3ccccc23)sc2ccccc21 |
| 26 | COc1ccc2c(c1)sc(/C=C/c1ccc(N(C)C)c3ccccc13)[n+]2C |
| 130 | Nc1ccc(/N=N/c2nc3ccccc3s2)c2ccccc12 |
| 340 | COc1ccc2nc(/N=N/c3ccc(N(C)C)c4ccccc34)sc2c1 |
| 41 | CN(C)c1ccc(/C=C/c2sc3ccc(Cc4ccccc4)c(Cc4ccccc4)c3[n+]2C)cc1 |

| Compound | IC50 [nM] |
| --- | --- |
| CN(C)c1ccc(/C=C/c2nc3cc(Cl)ccc3s2)cc1 | > 100000 |
